According to patent publication EP0275207A2, “Pharmaceutical and veterinary compositions” (priority 1987, dated 1988):

Key:
Trichophyton rubrum = assay: 7 day growth test in phosphate buffered saline solution (ED 50 and ED 90); type: cell-based; settings: for EDso and ED90 results against T. Rubrum: compared to those obtained using bis THP phosphite and THP sulphate; for Mg. growth (% of control) / Mg. growth dry weight / ED50 / ED90: 7 day test; for ED50 / ED90: ppm (Active Compound)
Description: The activity of 50% aqueous bis THP phosphite, 50% aqueous mono THP phosphite and 80% aqueous THP sulphate against Trichophyton rubrum were compared in a 7 day test in phosphate buffered saline solution to determine ED 50 and ED 90 values.

fungi = assay: Time-kill test (surviving organisms by plate count) in phosphate buffered saline, yeast and fungal strains; type: cell-based; settings: after 24 hours
Protocol: The following yeast and fungal strains were used in the tests: • Candida albicans ATCC 10231 • Candida tropicalis NCPF 3111 • Absidia corymbifera NCPF 2001 • Sporotrichum schenkii NCPF 3182 • Trichophyton rubrum NCPF 197 • Trichophyton mentagrophytes NCPF 351 • Microsporum Canis NCPF 351 • Penicillium funicolosum CMI 114933 • Aureobasidium pullulans CMI 45533
Inocula for the two yeast (Candida) strains wre prepared from cultures on Sabouraud dextrose agar (SDA Oxide CM 141) incubated at 37°C for 48 hours. Surface growth of the organisms was suspended in sterile physiological saline and standardised by plate counts to contain approximatedly 10^6 cfu/ml. […]
(§1) The test solutions as described in (5) above were prepared in 50 ml volumes and the test solutions plus a 100 ml volume of PBS (as control) were inoculated with appropriate volumes (0.5 to 1 ml) of the inocula prepared as described in (2) above, shaken to evenly distribute the inoculum and held at room temperature. Immediatedly after inoculation (time 0) and then at pre-determined times 0.1 ml aliquots were removed from the test and control solutions for counting. […]
(§2) Developing colonies were then counted and by reference to the appropriate dilution ratios the numbers of surviving organisms at each compound concentration/time point were calculated.

protozoal infection = assay: Treatment of fish pond with an infected Koi Carp; type: in vivo; settings: 100 ppm dosed to the pond, concentration of 27 ppm in the pond water
Protocol: 100 ppm of 75% aqueous THP sulphate was dosed to the pond via the oxygenating venturi to provide a concentration of 27 ppm in the pond water.

bacteria = assay: Time-kill test (surviving organisms by plate count) in phosphate buffered saline, bacterial strains; type: cell-based; settings: within 2 to 6 hours of exposure
Protocol: The following bacterial strains were used in the tests: • Streptococcus pyogenes NCTC 8198 • Streptococcus faecalis ATCC 19433 • Sarcina lutea ATCC 9341 • Proteus mirabilis NCTC 8559 • Proteus vulgaris NCTB 4175 • Klebsiella pneumoniae NCTC 10341 • Salmonella typhimurium NCTB 10258 • Salmonella enteritidis NCTC 6676 • Shigella boydii NCTC 9328 • Bacillus subtilus ATCC 6633 • Bacillus cereus ATCC 11778
Inocula for the bacterial strains were prepared from cultures on Tryptone soy agar (TSA, Oxoid CM 131) incubated at 37° C for 24 hours. […]
as §1, §2

Naegleria = assay: In vitro kill of protozoon; type: cell-based

THP acetate
EDso and ED90 results against T. Rubrum (Trichophyton rubrum): substantially similar

OC[P+](CO)(CO)CO.[Cl-] [THP chloride, tetrakis (hydroxymethyl) phosphonium chloride]
EDso and ED90 results against T. Rubrum (Trichophyton rubrum): substantially similar

THP fluoride
EDso and ED90 results against T. Rubrum (Trichophyton rubrum): substantially similar

tetrakis(hydroxymethyl) phosphonium sulphate
concentration giving a high degree of lethal activity to the fungi (fungi): 100-150 ppm
infection of the other fish (protozoal infection): none of the other fish became infected
outcome for the infected fish (protozoal infection): recovered fully
tolerability in fish (feeding, distress) (protozoal infection): no signs of distress
concentration giving a high degree of lethal activity to bacteria (bacteria): at least 20 ppm

THP borate
EDso and ED90 results against T. Rubrum (Trichophyton rubrum): substantially similar

bis THP phosphite [50% bis THP phosphite]
Mg. growth (% of control) (Trichophyton rubrum; 5 ppm (Active Compound)): (82) % of control
Mg. growth dry weight (Trichophyton rubrum; 5 ppm (Active Compound)): 8.7 Mg.
Mg. growth (% of control) (Trichophyton rubrum; 15 ppm (Active Compound)): (20) % of control
Mg. growth dry weight (Trichophyton rubrum; 15 ppm (Active Compound)): 2.1 Mg.
Mg. growth (% of control) (Trichophyton rubrum; 50 ppm (Active Compound)): (0) % of control
Mg. growth dry weight (Trichophyton rubrum; 50 ppm (Active Compound)): 0 Mg.
Mg. growth (% of control) (Trichophyton rubrum; 150 ppm (Active Compound)): (0) % of control
Mg. growth dry weight (Trichophyton rubrum; 150 ppm (Active Compound)): 0 Mg.
Mg. growth (% of control) (Trichophyton rubrum; 500 ppm (Active Compound)): (0) % of control
Mg. growth dry weight (Trichophyton rubrum; 500 ppm (Active Compound)): 0 Mg.
ED50 (Trichophyton rubrum): 10 ppm
ED90 (Trichophyton rubrum): 25 ppm

tetrakis(hydroxymethyl) phosphonium sulphate [80% THP Sulphate]
Mg. growth (% of control) (Trichophyton rubrum; 8 ppm (Active Compound)): (92) % of control
Mg. growth dry weight (Trichophyton rubrum; 8 ppm (Active Compound)): 7.3 Mg.
Mg. growth (% of control) (Trichophyton rubrum; 24 ppm (Active Compound)): (0) % of control
Mg. growth dry weight (Trichophyton rubrum; 24 ppm (Active Compound)): 0 Mg.
Mg. growth (% of control) (Trichophyton rubrum; 80 ppm (Active Compound)): (0) % of control
Mg. growth dry weight (Trichophyton rubrum; 80 ppm (Active Compound)): 0 Mg.
Mg. growth (% of control) (Trichophyton rubrum; 240 ppm (Active Compound)): (0) % of control
Mg. growth dry weight (Trichophyton rubrum; 240 ppm (Active Compound)): 0 Mg.
Mg. growth (% of control) (Trichophyton rubrum; 800 ppm (Active Compound)): (0) % of control
Mg. growth dry weight (Trichophyton rubrum; 800 ppm (Active Compound)): 0 Mg.
ED50 (Trichophyton rubrum): 14 ppm
ED90 (Trichophyton rubrum): 20 ppm

THP tartrate
EDso and ED90 results against T. Rubrum (Trichophyton rubrum): substantially similar

bis THP phosphate
EDso and ED90 results against T. Rubrum (Trichophyton rubrum): substantially similar

OC[P+](CO)(CO)CO [THP bromide]
EDso and ED90 results against T. Rubrum (Trichophyton rubrum): substantially similar

THP citrate
EDso and ED90 results against T. Rubrum (Trichophyton rubrum): substantially similar

mono THP phosphite [50% THP phosphite]
Mg. growth (% of control) (Trichophyton rubrum; 5 ppm (Active Compound)): (131) % of control
Mg. growth dry weight (Trichophyton rubrum; 5 ppm (Active Compound)): 9.3 Mg.
Mg. growth (% of control) (Trichophyton rubrum; 15 ppm (Active Compound)): (39) % of control
Mg. growth dry weight (Trichophyton rubrum; 15 ppm (Active Compound)): 2.8 Mg.
Mg. growth (% of control) (Trichophyton rubrum; 50 ppm (Active Compound)): (44) % of control
Mg. growth dry weight (Trichophyton rubrum; 50 ppm (Active Compound)): 3.1 Mg.
Mg. growth (% of control) (Trichophyton rubrum; 150 ppm (Active Compound)): (32) % of control
Mg. growth dry weight (Trichophyton rubrum; 150 ppm (Active Compound)): 2.3 Mg.
Mg. growth (% of control) (Trichophyton rubrum; 500 ppm (Active Compound)): (23) % of control
Mg. growth dry weight (Trichophyton rubrum; 500 ppm (Active Compound)): 1.6 Mg.
ED50 (Trichophyton rubrum): 11 ppm
ED90 (Trichophyton rubrum): >500 ppm

tetrakis(hydroxymethyl) phosphonium sulphate [THPS]
concentration giving a complete in vitro kill of Naegleria (Naegleria): 15 ppm

THP lactate
EDso and ED90 results against T. Rubrum (Trichophyton rubrum): substantially similar
